“Also recorded” adds a separate entry of the source.
Tests used:
[1] = tested on: UCH-L1; experiment: Total amount and turnover of UCH-L1 in SH-SY5Y cells (pulse-chase, not shown); type: cell-based
[2] = tested on: UCH-L1; experiment: Membrane association of UCH-L1 in SH-SY5Y cells (membrane fractionation, 2D electrophoresis, Western blotting); type: cell-based; details: compared to cells treated with DMSO
Description: Membrane fractionation: Cells were harvested by scraping and washed with PBS. Cell pellet was suspended in lysis buffer (50 mM Tris-HCl, 1 mM EDTA) supplemented with protease inhibitor cocktail (Sigma) and homogenized by passing through 26G needles 10 times. Suspension was clarified by spinning at 600 g for 5 minutes. Clarified suspension was ultracentrifuged at 100,000 g for 2 hours and separated into membrane and cytosol. Membrane fraction was washed with washing buffer (50 mM Tris-HCl, 1 mM EDTA 1 M NaCl), and pelleted each time with bench-top centrifuge.
2D electrophoresis: For the isolation of total cellular protein, cultured SH-SY5Y cells maintained as described above were rinsed with ice-cold PBS. Cells were lysed in 1 ml dSDS buffer (50 mM Tris-HCl, pH 8.0 0.1% SDS) supplemented with protease inhibitor cocktail. Lysates were boiled for 3 min, and were treated with Dnase and Rnase as described. […]
Western Blotting: Following transfer of SDS gels onto NC membrane, all membranes were blocked with 5% non-fat milk in TBST (50 mM Tris-HCl pH 7.4, 150 mM NaCl, 0.1% Tween 20), and incubated with primary antibody overnight with 1% BSA in TBST, washed three times with TBST, and incubated with horseradish peroxidase-conjugated secondary antibody for 1 hour (Promega). Bound antibodies were detected using enhanced chemiluminascence (NEM).

COC(=O)[C@H](CCSC)NC(=O)c1ccc(NC[C@@H](N)CS)cc1-c1ccccc1 [FTI-277]
total amount of UCH-L1 [1]: reduced | rate of turnover of UCH-L1 ([1]; pulse-chase experiment not shown): increased | amount of cytosolic UCH-L1 [2]: without affecting | amount of membrane bound UCH-L1 (membrane-associated, farnesylated species) [2]: significant decrease; also recorded: decreased; also recorded: reducing
